According to ChEMBL document CHEMBL5523739, “NN1213 - A Potent, Long-Acting, and Selective Analog of Human Amylin” (J Med Chem, 2024):
≈ marks a conversion by molar mass, not a printed value. Calls of active or inactive are those of the source. The rule behind the calls is not given here.

Tests used:
Calcitonin receptor [1] = target: T1, Calcitonin receptor (Homo sapiens, UniProt P30988); test: Agonist activity at human CTR expressed in Baby hamster kidney cells incubated for 3 hrs followed by medium replacement without compound measured after 30 mins by luciferase reporter assay; assay type: functional, cell-based, Baby hamster kidney cell
T1 sequence (P30988 whole entry): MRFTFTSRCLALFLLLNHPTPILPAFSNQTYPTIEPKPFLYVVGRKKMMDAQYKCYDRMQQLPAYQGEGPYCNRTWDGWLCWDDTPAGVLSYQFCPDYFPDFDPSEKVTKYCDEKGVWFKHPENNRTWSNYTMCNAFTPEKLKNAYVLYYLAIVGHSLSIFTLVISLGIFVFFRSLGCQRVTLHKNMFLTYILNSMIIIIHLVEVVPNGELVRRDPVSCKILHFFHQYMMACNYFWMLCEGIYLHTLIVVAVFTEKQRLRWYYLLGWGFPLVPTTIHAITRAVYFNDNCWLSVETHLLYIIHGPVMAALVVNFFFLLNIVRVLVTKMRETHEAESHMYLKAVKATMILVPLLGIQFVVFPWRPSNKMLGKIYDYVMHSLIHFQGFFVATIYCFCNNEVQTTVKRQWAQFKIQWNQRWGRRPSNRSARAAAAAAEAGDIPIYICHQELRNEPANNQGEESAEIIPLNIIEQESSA

[2] = target: T2, Amylin receptor AMY3; CALCR/RAMP3 (Rattus norvegicus, UniProt P32214+Q9JJ73); test: Agonist activity at rat AMY3R complex of CTR/RAMP3 expressed in Baby hamster kidney cells incubated for 3 hrs by cAMP assay; assay type: functional, cell-based, Baby hamster kidney cell
T2 sequence (P32214 whole entry): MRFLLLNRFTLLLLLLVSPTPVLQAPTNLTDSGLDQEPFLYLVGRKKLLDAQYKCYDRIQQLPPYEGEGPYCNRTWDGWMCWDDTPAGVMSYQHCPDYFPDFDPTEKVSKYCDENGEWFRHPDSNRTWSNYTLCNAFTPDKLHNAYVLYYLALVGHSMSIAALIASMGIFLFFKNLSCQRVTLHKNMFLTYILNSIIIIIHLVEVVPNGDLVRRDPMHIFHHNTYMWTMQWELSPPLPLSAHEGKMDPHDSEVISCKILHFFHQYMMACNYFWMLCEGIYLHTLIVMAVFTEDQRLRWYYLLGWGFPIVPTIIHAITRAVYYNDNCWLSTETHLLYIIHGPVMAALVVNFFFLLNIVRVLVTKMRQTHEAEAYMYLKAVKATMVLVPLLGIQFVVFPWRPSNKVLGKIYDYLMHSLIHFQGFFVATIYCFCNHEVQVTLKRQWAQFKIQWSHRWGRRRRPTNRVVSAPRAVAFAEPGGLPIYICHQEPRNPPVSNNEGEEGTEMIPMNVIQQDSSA
T2 sequence (Q9JJ73 whole entry): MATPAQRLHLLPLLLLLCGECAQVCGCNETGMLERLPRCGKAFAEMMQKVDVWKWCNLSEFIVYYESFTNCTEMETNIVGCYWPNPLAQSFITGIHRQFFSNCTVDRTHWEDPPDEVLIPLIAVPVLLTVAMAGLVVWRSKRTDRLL

Calcitonin receptor [3] = target: T1, Calcitonin receptor; test: Displacement of 125I-Calcitonin from human CTR expressed in Baby hamster kidney cell membrane incubated for 120 mins by SPA method; assay type: cell membranes
Calcitonin receptor [4] = target: T3, Calcitonin receptor (Rattus norvegicus, UniProt P32214); test: Displacement of 125I-Calcitonin from rat CTR expressed in Baby hamster kidney cell membrane incubated for 120 mins by SPA method; assay type: cell membranes
T3 sequence (P32214 whole entry): T2 sequence (P32214 whole entry)

[5] = Solubility of compound at pH 3 incubated overnight by UPLC analysis; assay type: physicochemical; conditions: buffer
[6] = Solubility of compound at pH 4 incubated overnight by UPLC analysis; assay type: physicochemical; conditions: buffer
[7] = Solubility of compound at pH 5 incubated overnight by UPLC analysis; assay type: physicochemical; conditions: buffer
[8] = Solubility of compound at pH 6.5 incubated overnight by UPLC analysis; assay type: physicochemical; conditions: buffer
[9] = Solubility of compound at pH 7.5 incubated overnight by UPLC analysis; assay type: physicochemical; conditions: buffer
[10] = Stability against amyloid fibril formation at pH 7.5 assessed as lag time at 1 uM measured after 45 hrs by ThT assay; assay type: physicochemical; conditions: pH 7.5, 45 h
[11] = Stability against amyloid fibril formation at pH 7.5 assessed as compound recovery at 1 uM measured after 45 hrs by ThT assay; assay type: physicochemical; conditions: pH 7.5, 45 h
Calcitonin receptor [12] = target: T1, Calcitonin receptor; test: Agonist activity at human CTR transduced in human HeLa cells by cAMP assay; assay type: functional, cell-based
[13] = target: Amylin receptor AMY1, CALCR/RAMP1 (Homo sapiens, UniProt O60894+P30988); test: Agonist activity at human AMY1R complex of CTR/RAMP1 transduced in human HeLa cells by cAMP assay; assay type: functional, cell-based
Chain of Amylin receptor AMY1, CALCR/RAMP1 (O60894 whole entry, one chain of several): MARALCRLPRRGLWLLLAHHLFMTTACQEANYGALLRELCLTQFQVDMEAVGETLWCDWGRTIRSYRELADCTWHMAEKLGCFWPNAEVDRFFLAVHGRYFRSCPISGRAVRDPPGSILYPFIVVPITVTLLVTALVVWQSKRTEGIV

[14] = target: Amylin receptor AMY2; CALCR/RAMP2 (Homo sapiens, UniProt O60895+P30988); test: Agonist activity at human AMY2R complex of CTR/RAMP2 transduced in human HeLa cells by cAMP assay; assay type: functional, cell-based
Chain of Amylin receptor AMY2; CALCR/RAMP2 (O60895 whole entry, one chain of several): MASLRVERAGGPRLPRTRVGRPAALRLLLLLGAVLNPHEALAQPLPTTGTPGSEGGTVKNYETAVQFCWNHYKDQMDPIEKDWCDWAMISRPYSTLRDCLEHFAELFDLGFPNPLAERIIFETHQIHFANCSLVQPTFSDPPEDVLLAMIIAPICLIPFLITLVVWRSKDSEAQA

[15] = Terminal half life in rat at 2.5 nmol/kg, sc; assay type: ADME; conditions: in vivo, read-out: beta t1/2 (converted)
[16] = Terminal half life in Beagle dog at 6 nmol/kg, iv; assay type: ADME, Canis lupus familiaris; conditions: in vivo, read-out: beta t1/2 (converted)
Rattus norvegicus [17] = test: Appetite suppressing activity in rat assessed as reduction in food intake administered subcutaneously measured for 48 hrs; assay type: functional, organism-based; conditions: dose 3-100 nmol/kg, route sc
Rattus norvegicus [18] = test: Appetite suppressing activity in rat assessed as reduction in food intake at 3 nmol/kg, sc measured after 24 hrs relative to control; assay type: functional; design: scale not given: the % may be the effect or the level left
Canis familiaris [19] = test: Appetite suppressing activity in dog assessed as reduction in food intake administered subcutaneously measured for 48 hrs; assay type: functional, organism-based; conditions: Canis lupus familiaris, dose 3-300 nmol/kg, route sc
Canis familiaris [20] = test: Appetite suppressing activity in dog assessed as reduction in food intake at 3 nmol/kg, sc measured for 48 hrs; assay type: functional, organism-based; conditions: Canis lupus familiaris
[21] = Toxicity in dog assessed as vomiting at 3 to 300 nmol/kg, sc; design: species or system Canis lupus familiaris; conditions: in vivo, dose 3-300 nmol/kg
Rattus norvegicus [22] = test: Appetite suppressing activity in HFD-fed DIO rat model assessed as reduction in food intake at 0.7 to 22 nmol/kg, sc qd measured for 1 to 2 hrs; assay type: functional, organism-based; conditions: dose 0.7-22 nmol/kg, time 1-2 hrs
Rattus norvegicus [23] = test: Appetite suppressing activity in HFD-fed DIO rat model assessed as reduction in food intake at 0.7 nmol/kg, sc qd measured for 21 days relative to control; assay type: functional; design: scale not given: the % may be the effect or the level left; conditions: time 21 day
Rattus norvegicus [24] = test: Appetite suppressing activity in HFD-fed DIO rat model assessed as reduction in body weight at 2.2 to 22 nmol/kg, sc qd measured for 21 days relative to control; assay type: functional; design: scale not given: the % may be the effect or the level left; conditions: dose 2.2-22 nmol/kg, time 21 day
Rattus norvegicus [25] = test: Appetite suppressing activity in HFD-fed DIO rat model assessed as reduction in body weight at 0.7 to 22 nmol/kg, sc qd measured after 15 days; assay type: functional, organism-based; conditions: dose 0.7-22 nmol/kg, time 15.0 day
Rattus norvegicus [26] = test: Appetite suppressing activity in HFD-fed DIO rat model assessed as reduction in food intake at 0.7 to 22 nmol/kg, sc qd measured after 15 days; assay type: functional, organism-based; conditions: dose 0.7-22 nmol/kg, time 15.0 day
Rattus norvegicus [27] = test: Appetite suppressing activity in HFD-fed DIO rat model assessed as reduction in body weight administered subcutaneously once daily measured for 21 days; assay type: functional, organism-based; conditions: dose 0.7-22 nmol/kg, route sc, time 21.0 day
Rattus norvegicus [28] = test: Appetite suppressing activity in HFD-fed DIO rat model assessed as reduction in fat mass administered subcutaneously once daily measured after 21 days; assay type: functional, organism-based; conditions: dose 0.7-22 nmol/kg, route sc, time 21.0 day

EC50 (Calcitonin receptor [1]): 5.21 nM | EC50 [2]: 0.262 nM | IC50 (Calcitonin receptor [3]): 42 nM | IC50 (Calcitonin receptor [4]): 135 nM | solubility [5]: ≥ 200 µM | solubility [6]: ≥ 200 µM | solubility [7]: ≥ 200 µM | solubility [8]: ≥ 200 µM | solubility [9]: 106 µM (≈ 421 µg/mL) | Time [10]: 42 h | Drug recovery [11]: 96% | EC50 (Calcitonin receptor [12]): 1.74 nM | EC50 [13]: 0.0575 nM | EC50 [14]: 0.182 nM | half-life [15]: ~24 h | half-life [16]: ~76 h
SMILES: CC[C@H](C)[C@H](NC(=O)[C@H](C)NC(=O)CNC(=O)[C@H](Cc1ccccc1)NC(=O)[C@H](CC(N)=O)NC(=O)[C@@H]1CCCN1C(=O)[C@H](CO)NC(=O)[C@H](CO)NC(=O)[C@H](Cc1c[nH]cn1)NC(=O)[C@H](CCCNC(=N)N)NC(=O)[C@H](CC(C)C)NC(=O)[C@H](Cc1ccccc1)NC(=O)[C@H](CC(=O)O)NC(=O)[C@H](C)NC(=O)[C@H](CC(C)C)NC(=O)[C@H](CCCNC(=N)N)NC(=O)[C@H](CCC(N)=O)NC(=O)[C@@H](NC(=O)[C@H](C)NC(=O)[C@@H]1CSSC[C@H](NC(=O)[C@@H](N)CCCCN)C(=O)N[C@@H](CC(N)=O)C(=O)N[C@@H]([C@@H](C)O)C(=O)N[C@@H](C)C(=O)N[C@@H]([C@@H](C)O)C(=O)N1)[C@@H](C)O)C(=O)N1CCC[C@H]1C(=O)N[C@@H](CO)C(=O)N[C@@H](CO)C(=O)N[C@H](C(=O)N[C@@H](CC(N)=O)C(=O)N[C@H](C(=O)NCC(=O)N[C@@H](CO)C(=O)N[C@@H](CCCNC(=N)N)C(=O)N[C@H](C(=O)N[C@@H](Cc1ccc(O)cc1)C(N)=O)[C@@H](C)O)C(C)C)[C@@H](C)O
Activity (Rattus norvegicus [17]): Dose-Dependent Effect | Activity (Rattus norvegicus [18]): 25% | Activity (Canis familiaris [19]): Dose-Dependent Effect | Activity (Canis familiaris [20]): inactive | Activity [21]: Non-Toxic | Activity (Rattus norvegicus [22]): Active | Activity (Rattus norvegicus [23]): 4.7% | Activity (Rattus norvegicus [24]): 8.7% | Activity (Rattus norvegicus [25]): inactive | Activity (Rattus norvegicus [26]): inactive | Activity (Rattus norvegicus [27]): Dose-Dependent Effect | Activity (Rattus norvegicus [28]): Dose-Dependent Effect
